One data set concerns human PBM cells. As to the kind of experiment: Cytotoxicity assay on uninfected PHA stimulated human PBMC (trypan blue). In kind it is cell-based. As to conditions: Table 2; >100 μM = Nontoxic; read-out: IC50 Toxicity PBM Cells. Here is the method: Cells. […] PBS), and pelleted at 300×g for 10 minutes. […] Cytotoxicity assay. The drugs were evaluated for their potential toxic effects on uninfected PHA stimulated human PBMC. Flasks were seeded so that the final cell concentration was 2×10^5 cells/ml. The cells were cultured with and without drug for 6 days, at which time aliquots were counted for cell viability, as assessed by the trypan blue dye-exclusion method using a hemacytometer. The median inhibitory concentration (IC50) was calculated using the median effect method (Chou et al, Elsevier-Biosoft, Elsevier Science Publishers, Cambridge, U.K., 1985; Chou et al, Adv. Enz. Regul. 22, 27-55, 1984). Median-effect method. Dose-effect relationships were analyzed by the median-effect equation (Chou et al, Adv. Enz. Regul. 22, 27-55, 1984). The slope (m) and median effective and inhibitory concentration (EC50 and IC50) values were obtained by using a computer program developed by Chou and Chou (Chou et al, Elsevier-Biosoft, Elsevier Science Publishers, Cambridge, U.K., 1985).

The target in data set [1] is T1, HIV-1 reverse transcriptase (Human immunodeficiency virus type 1 group M subtype B, UniProt P04585).
T1 construct: HIV-1 RT was isolated from detergent disrupted virions; made in house; host or cells: virions pelleted from culture fluid of HIV-1-infected PHA-stimulated human PBMC; DEAE-cellulose and phosphocellulose chromatography
As to the kind of experiment: Evaluation of compounds on purified retroviral RT (cell-free, virion-derived). In kind it is biochemical. As to conditions: Table 2; read-out: EC-50 Cell-Free RT (virion-derived). On the procedure: Evaluation of compounds on purified retroviral RT. HIV-1 RT was isolated from detergent disrupted virions obtained from the cell-free supernatant of infected PHA-stimulated PBMC. The enzyme was purified by passing the extract through ion-exchange chromatography columns, as described previously (Eriksson et al, Antimicrob. Agents Chemother. 31, 600-604, 1977. Briefly, 750 ml of culture fluid harvested from HIV-1-infected PBMC were ultracentrifuged to pellet the virus. The pellet was dissolved in buffer A [50 mM Tris-HCl, pH 7.9/0.25% Nonidet P-40/5 mM dithiothreitol/20% (vol/vol) glycerol] containing 1 mM EDTA, and freeze-thawed four times. After clarification by centrifugation, the enzyme was partially purified from the supernatant by passing the extract through a DEAE-cellulose column (Whatman DE-52; 2.6×15 cm) previously equilibrated with buffer B (50 mM Tris-Cl, pH 7.9, 50 mM KCl, 1 mM EDTA, 1 mM dithiothreitol, 20% glycerol). Elution was performed using a linear gradient 50-500 mM KCl in buffer B. Fractions containing enzyme activity were dialyzed against buffer B and were further purified on a phosphocellulose column (Whatman P-11) using a linear KCl (50-500 mM) gradient in buffer B. The peak fractions were pooled and dialyzed against buffer B. The enzyme was characterized as HIV-1 reverse transcriptase based on its cation, salt, pH, and template requirements according to previous descriptions (Eriksson et al, Antimicrob. Agents Chemother. 31, 600-604, 1977). The standard reaction mixture was used to evaluate the inhibitory effect of the drugs, as previously described (Eriksson et al, Antimicrob. Agents Chemother. 31, 600-604, 1977). Briefly, the reaction mixtures (final volume 100 μl) contained 100 mM Tris-HCl, pH 8.0, 50 mM KCl, 2 mM MgCl2, 5 mM DTT, 400 ug/ml bovine serum albumin, 3 μg/ml (rA)·(dT)12-18 and 1 μM of [^3H]TTP (specific activity 82.3 Ci/mmol). The reactions were started by the addition of 10 μl of partially purified RT, incubated at 37° C. for 60 min., and processed as previously described (Eriksson et al, Antimicrob. Agents Chemother. 31, 600-604, 1977).
Median-effect method. Dose-effect relationships were analyzed by the median-effect equation (Chou et al, Adv. Enz. Regul. 22, 27-55, 1984). The slope (m) and median effective and inhibitory concentration (EC50 and IC50) values were obtained by using a computer program developed by Chou and Chou (Chou et al, Elsevier-Biosoft, Elsevier Science Publishers, Cambridge, U.K., 1985).

Another data set deals with HSV-1. Briefly: Plaque reduction assay for herpes simplex viruses in Vero cells. The format is cell-based, herpes simplex virus type 1. Conditions: Table 2; read-out: EC-50 HSV-1. On the procedure:
(§1) Cell culture assays for heroes simplex viruses. Mycoplasma-free Vero cells, obtained from Flow Laboratory (McLean, Va.), were used for the plaque assays. The methodologies for the plaque reduction and cytotoxicity assays have been previously described (Schinazi et al, Antimicrob. Agents Chemother. 22, 499-507, 1982). Median-effect method. Dose-effect relationships were analyzed by the median-effect equation (Chou et al, Adv. Enz. Regul. 22, 27-55, 1984). The slope (m) and median effective and inhibitory concentration (EC50 and IC50) values were obtained by using a computer program developed by Chou and Chou (Chou et al, Elsevier-Biosoft, Elsevier Science Publishers, Cambridge, U.K., 1985).
Background: Plaques are areas of infected cells; plaque reduction assays count them against a control.

For the next data set, the system named is HSV-2. The description is as above. Conditions: Table 2; read-out: EC-50 HSV-2. The format is cell-based, herpes simplex virus type 2. On the procedure:
as §1

The subject of a further data set is Friend, Spleen (EY-10). Briefly: UV/XC assay for murine retroviruses in SC-1 cells. The format is cell-based, murine retrovirus. As to conditions: Table 2; read-out: EC-50 Friend, Spleen (EY-10). On the procedure:
UV/XC Assay for Murine Retroviruses Cells. Mouse embryo fibroblasts (SC-1) and XC cells were obtained from the American Type Culture Collection, Rockville, Md. The XC cell line was derived from a transplantable tumor induced in newborn White-Weston rats by the intramuscular injection of the Prague strain of Rous sarcoma virus. […] The cells were maintained in Eagle's minimum essential medium with Hanks balanced salt solution, supplemented with penicillin (100 U/ml), streptomycin (100 μg/ml), sodium bicarbonate (24 mM), Hepes (25 mM), and either 2 (maintenance) or 10 (growth) percent inactivated newborn or fetal calf serum.
Virus quantitation by UV-XC assay. The XC test (Rowe et al, Virology 42, 1136-1139, 1970) is a plaque-type of assay which tests for the presence and titer of B- and N-tropic murine leukemia viruses. Because these viruses produce no overt signs of infection of SC-1 mouse cells, it is necessary to overlay the virus producing culture with an indicator cell line, XC. The number of syncytia that are produced is a direct measure of the virus titer in FFU.
Six-well plates were seeded with 1×10^5 SC-1 mouse cells on the first day. On the following day the medium was removed and the inoculum (0.2 ml) was added in medium containing polybrene (4 μg/ml). For determining the antiviral activity of the compounds in culture, the virus dilution selected produced in untreated cultures about 80 foci per well. After 1 hour, the virus was removed and various concentrations of the drug were added. The plates were replenished with medium on the third and fifth days. The medium was removed on the eighth day and the cells exposed to UV irradiation (60 erg/mm^2 per sec) for 30 seconds. Medium containing 10^6 XC cells was then added to each plate. On the eleventh day, the plates were fixed with 10% buffered Formalin and stained with crystal violet. Comparison of the number of foci to those found in virus-infected cells receiving no drug allowed determination of whether a drug at a particular concentration was effective. Control cells without virus but receiving the drug provided an estimate of the drug's toxic effects as quantitated by using trypan blue staining.

For another data set, the system named is Vero cells. Briefly: Cytotoxicity assay in Vero cells. In kind it is cell-based. As to conditions: Table 2; >100 μM = Nontoxic; read-out: IC50 Toxicity Vero Cells. The text has this:
Cell culture assays for heroes simplex viruses. Mycoplasma-free Vero cells, obtained from Flow Laboratory (McLean, Va.), were used for the plaque assays. The methodologies for the plaque reduction and cytotoxicity assays have been previously described (Schinazi et al, Antimicrob. Agents Chemother. 22, 499-507, 1982).

Data set [2] can be described thus: Comparison of toxicity of polyoxometalate compounds in mice (mortality, haematology). The format is in vivo. Conditions: BID × 6, 60 mkd i.p. The arrangement: MCV (mean corpuscular volume): unit not given here. The text has this: Comparison of Toxicity of Polyoxometalate Compounds Mice.
In vivo antiviral experiments. […] Treatment was continued daily for 6 or 10 days.

Data set [3] relates to human granulocyte-macrophage precursor cells. In kind it is cell-based. The text has this:
Preparation of Cells. Human bone marrow cells were collected by aspiration from the posterior iliac crest of normal healthy volunteers, treated with heparin and the mononuclear population separated by Ficoll-Hypaque gradient centrifugation. Cells were washed twice in Hanks balanced salt solution, counted with a hemacytometer and their viability was >98% as assessed by trypan blue exclusion.
Assay of Colony-Forming Unit Granulocyte-Macrophage (CFU-GM) for Drug Cytotoxicity. The culture assay for CFU-GM was performed using a bilayer soft-agar method as recently described (Sommadossi et al, Antimicrob. Agents Chemother. 31, 452-454, 1987). McCoy 5A nutrient medium supplemented with 15% dialyzed fetal bovine serum (heat inactivated at 56° C. for 30 min.) (Gibco Laboratories, Grand Island, N.Y.) was used in all experiments. This medium was completely lacking in thymidine and uridine. Cells were cloned in 0.3% agar in the presence of increasing concentrations of the modulating compound or in medium alone (control). After 14 days of incubation at 37° C. in a humidified atmosphere of 5% CO2 in air, colonies (≧50 cells) were counted using an inverted microscope.
The toxicities of a variety of polyoxometalates with respect to human bone marrow cells (human granulocyte-macrophage precursor cells) were assessed.

Consider three substances from patent publication US6911470B1, “Polyoxometalate compounds as antiviral agents” (priority 1988, dated 2005).

As for “(HisH^+)p(H^+)4-pST, where p=1-4 [(HISH^+)nH^+(4−n)ST]”, the IC50 (as a rule, the concentration that gives 50% inhibition) in the data set on human PBM cells is 0.181 mM; in the data set with Vero cells it was above 100 µM. Moreover, the EC50 in data set [1] amounted to 22.3 µM; with HSV-1, 950 nM; in the data set on HSV-2, 870 nM; in the data set with Friend, Spleen (EY-10), 920 nM.
Regarding “(LysH^+)q(H^+)5-qST, where q=1-5 [(LYSH^+)nH^+(4−n)ST]”, the half-maximal inhibitory concentration (IC50) is 2.45 mM in the data set on human PBM cells and above 100 µM in the data set on Vero cells. For the same substance, the EC50 in data set [1] was 20.5 µM; in the data set with HSV-1 it was 320 nM; in the data set on HSV-2, below 1000 nM; in the data set on Friend, Spleen (EY-10), 950 nM.
Take (NH4)4[SiW12O40] [NH4ST]: in data set [2] (bled on day 17), the “Hct (hematocrit)” value came out at 17.47 ± 7.08%, the “Hgb (hemaglobin)” value amounted to 6.42 ± 2.39 g/dL, the MCH is recorded as 17.6 ± 4.64 pg and the “MCHC (mean corpuscular hemoglobin concentration)” value worked out at 37.92 ± 9.82 g/dL. Further, in data set [2] (bled on day 17), the “MCV (mean corpuscular volume)” value was determined as 43.38 ± 0.51, the “PLT (platelates) (×1000)” value is reported as 246.46 ×1000, the “RBC (×1000000)” value was 3.76 ± 1.57 ×1000000 and the “RDW (width of red cells)” value stood at 36.76 ± 2.63%. The “WBC (×1000)” value in data set [2] (bled on day 17) was 7.18 ± 3.9 ×1000. The Mortality in data set [2] (dead/total) is 0/5. In addition, the “toxicity to human bone marrow cells (order of toxicity, FIG. 6)” value in data set [3] is “NH4BT (least toxic)<BT and NH4ST<AZT and ST”.
